Test results from patent publication US5569598A (Lucky Limited Co., priority 1993, dated 1996).
Residues, ends and D or L forms follow the SMILES beside them. *: point of attachment. pNA = O=[N+]([O-])c1ccc(N*)cc1

Columns and labels:
[1] = WHO-supplied reference, literature value; cited from earlier work
[2] = system: aminopeptidase; experiment: Substrate specificity of the aminopeptidase (paranitroanilide substrates); format: biochemical, Streptomyces thermonitrificans; details: substrate 10 mM, 1 unit aminopeptidase, 100 mM Tris buffer pH 8.0, 37° C.; activity to leucine-paranitroanilide as 100%
From the text: (§1) Enzymol., 19, 514-521(1970).
The substrate specificity of the aminopeptidase was examined as follows. […] The reaction time was regulated in accordance with the substrate so that paranitroanilide is produced in a fixed rate.

[3] = system: aminopeptidase; experiment: Effect of orthophenanthroline on the enzyme activity; format: biochemical, Streptomyces thermonitrificans; details: 37° C., 1 minute, 0 mM = 100
From the text: as §1

Compound | Activity(%) of the aminopeptidase according to the substrate [2] [%] | also measured
pituitary gland-derivedhuman growth hormone: pituitary gland-derived human growth hormone supplied by World Health Organization |  | potency [1]: 2.5 IU/mg
NCCCC[C@H](N)C(=O)Nc1ccc([N+](=O)[O-])cc1 [lysine-paranitroanilide] | 0.03 | 
C[C@H](N)C(=O)Nc1ccc([N+](=O)[O-])cc1 [alanine-paranitroanilide] | 0.60 | 
NCC(=O)Nc1ccc([N+](=O)[O-])cc1 [glycine-paranitroanilide] | 0.04 | 
NCC(=O)N[C@@H](Cc1ccccc1)C(=O)Nc1ccc([N+](=O)[O-])cc1 [glycine-phenylalanine-paranitroanilide] (H-Gly-Phe-pNA) | 0.11 | 
CC(C)C[C@H](N)C(=O)Nc1ccc([N+](=O)[O-])cc1 [leucine-paranitroanilide] | 100 | 
c1cnc2c(c1)ccc1cccnc12 [orthophenanthroline] |  | Activity(%) ([3]; orthophenanthroline 1 mM): 27%; Activity(%) ([3]; orthophenanthroline 5 mM): 2%
CSCC[C@H](N)C(=O)Nc1ccc([N+](=O)[O-])cc1 [methionine-paranitroanilide] | 3.60 | 
NCC(=O)N1CCC[C@H]1C(=O)Nc1ccc([N+](=O)[O-])cc1 [glycine-proline-paranitroanilide] (H-Gly-Pro-pNA) | 0.80 | 
